The values below come from PubChem BioAssay (NCI).

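Protocol summary: plate cells (96-well), add compound at 5 concentrations, incubate 48 h, interpolate endpoints linearly. GI50 is the concentration that inhibits growth by half. The concentration for full growth arrest is given as TGI.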

Holding throughout (assay): NCI tumour cell line growth inhibition, 48 h
Test [1] has as its system MDA-MB-435.
The subject of test [2] is NCI-H23 lung.
Test [3] relates to MALME-3M melanoma.
Test [4] has as its system PC-3 prostate.
Test [5] relates to NCI-H460 lung.
The test system of test [6] is A498 renal.
The subject of test [7] is HCC-2998 colon.
Test [8] relates to LOX IMVI melanoma.
Test [9] concerns RXF 393 renal.
The subject of test [10] is SF-295 CNS.

For the compound `COC1=CC(c2ccc[nH]2)=N/C1=C\c1[nH]c(C)c(C(=O)CCC(=O)Oc2ccc3c(c2)CCC2C3CC[C@]3(C)C(=O)CC[C@@H]23)c1C` (stereo not given in full), the GI50 is 7.7 µM in [1]; 9.75 µM in test [2]; 29.2 µM in test [3]; 6.52 µM in test [4]; 3.07 µM in [5]; 7.94 µM in test [6]. Besides, the GI50 in test [7] is 16.8 µM; in test [8] it was 0.998 µM; in test [9], 11.7 µM; in [10] it was 21.4 µM. For the same compound, the TGI is > 100 µM in [1]; > 100 µM in [2]; > 100 µM in test [3]; > 100 µM in test [4]; > 100 µM in [5]; 57.4 µM in test [6]. The TGI in test [7] was > 96.1 µM; in test [8] it was 3.35 µM; in test [9], > 87.4 µM; in [10] it was 85.3 µM.
Regarding `O=C(NO)c1ccc(C(=O)NO)cc1`, the TGI in test [1] was > 100 µM; in [2], > 100 µM; in test [3], 51.4 µM; in test [4] it was > 100 µM; in test [5], > 100 µM; in [6] it was > 100 µM. Moreover, the TGI in test [7] is 45.5 µM; in [8], > 100 µM; in [9], > 100 µM; in test [10], > 100 µM.
Regarding `Cc1c(Cl)ccc2c1NC(=O)C2(O)CC(=O)c1ccc(Cl)cc1Cl` (stereo not given), the TGI in test [1], in test [2], in test [3], in [4], in test [5] and in test [6] was > 50 µM in each case. In addition, the TGI in [7] was > 50 µM; in test [8], > 50 µM; in test [9], 48.9 µM; in test [10], > 50 µM.
`CN(C)c1c(Cl)c(=O)oc2c1ccc1nc(-c3ccccc3)sc12`: the TGI in test [1], in test [2], in test [3], in test [4], in [5] and in test [6] was > 100 µM throughout. In addition, the TGI in test [7], in test [8], in [9] and in test [10] was > 100 µM in each case.
As to `O=S(=O)(c1cccc(C(F)(F)F)c1)N1c2ccccc2-n2cccc2C1c1cccnc1` (stereo not given), the TGI in test [1] was > 42.2 µM; in [2], > 100 µM; in test [3] it was > 54.5 µM; in test [4], > 52.6 µM; in test [5] it was > 51.1 µM; in test [6] it was > 64 µM. Besides, the TGI is 43.7 µM in [7], > 68.7 µM in test [8], > 53.9 µM in test [9] and > 100 µM in [10].
Consider `O=C(CC12CC3CC(CC(C3)C1)C2)NCCOCCOCCNC(=O)c1cc2c(o1)C(=O)c1ccccc1C2=O`, for which the GI50 in test [1] was 0.185 µM; in [2] it was 0.133 µM; in [3] it was 0.134 µM; in [4], 1.38 µM; in test [5], 0.317 µM; in [6], 1.6 µM. Moreover, the GI50 in test [7] was 1.78 µM; in [8] it was 0.526 µM; in [9] it was 1.34 µM; in test [10], 0.663 µM. Moreover, the TGI in test [1] is 0.343 µM; in test [2], 0.469 µM; in test [3] it was 0.264 µM; in test [4], 9.21 µM; in test [5], 1 µM; in [6], 3.16 µM. Also, the TGI in test [7] came to 3.39 µM; in test [8] it was 2.03 µM; in test [9], 2.65 µM; in [10], 1.94 µM.
On to `COc1cc(OC)c(-c2cc(=O)c3c(OC)c(OC)c(OC)c(OC)c3o2)cc1OC`, for which the TGI in [1], in test [2], in test [3], in test [4], in test [5] and in test [6] was > 100 µM in each case. The TGI in test [7], in test [8], in test [9] and in [10] was > 100 µM each time.
On to `CCCOC(=O)N[C@H]1CCc2c(Br)c(OC)c(OC)c(OC)c2-c2ccc(SC)c(=O)cc21`, for which the GI50 was < 0.01 µM in [1]; 0.0348 µM in test [2]; 0.0348 µM in test [3]; 0.0197 µM in test [4]; 0.0306 µM in [5]; < 0.0135 µM in test [6]. For the same compound, the GI50 in [7] is 0.0317 µM; in [8], < 0.0177 µM; in test [9], 0.0397 µM; in test [10] it was 0.0252 µM. The TGI was 0.0189 µM in test [1]; > 57.3 µM in [2]; 27.2 µM in test [3]; > 100 µM in test [4]; 2.02 µM in test [5]; 0.0509 µM in test [6]. Also, the TGI in test [7] was determined as 4.26 µM; in test [8], 11.5 µM; in test [9] it was 24.8 µM; in test [10] it was 0.833 µM.
